{"source": "patent US20120225417A1", "about": "“Methods, Compositions and Kits for the Evaluation and Preservation of Sperm” (I'Alliance Boviteq Inc., priority 2011, published 2012)", "assay_type_in_all_cases": "biochemical", "key": {"[1]": {"test_system": "3′-5′ cAMP-PDE activity in bovine spermatozoa", "assay": "3′-5′ cAMP-PDE assay with family-specific PDE inhibitors in bovine spermatozoa", "conditions": "for Percentage of sensitive PDE activity, Cryo (B): cryopreserved bovine spermatozoa; for Percentage of sensitive PDE activity, Cryo (B) / Percentage of sensitive PDE activity, Fresh (A): Cil 10 μM, Rol 10 μM, Papa 400 nM", "experimental": "The semen was obtained from different Holstein bulls. The fresh ejaculated semen was kept in an insulated thermos flask, at 18° C., during transportation to the laboratory and processed within 3 hours after collection. The cryopreserved semen was obtained at the Centre d'Insémination […] du Québec (CIAQ) […]. The cryopreserved straws of semen were prepared according to CIAQ procedures. […] After cutting one end of the straw the semen was collected in a 15 ml falcon while cutting the other end. From this point fresh and cryopreserved semen were processed similarly. Approximately 50 μL of the semen was added to 5 mL of Talp-BSA medium in a 15 mL falcon tube to wash the spermatozoa. After centrifugation (280×g, 10 min, room temperature), the remaining pellet of approximately 100 μL was resuspended in Talp-BSA medium (500 μl for the fresh and 200 μl for two straws) to reach a concentration of 1×10^6 cells/10 μL. The samples were then vortex-agitated for 30 sec and kept on the ice until ready to run the assay. The concentration of sperm cells was measured according to hemacytometer method. The cAMP enzymatic assay (PDE assay) was conducted as previously described ([…]. et al., (2006). […] J. et al., (1979). Adv Cyclic Nucleotide Res 10, 69-92) with minor modifications. […] Measurements were also performed in the presence of PDE inhibitors: […] Cilostamide and Rolipram were purchased from Biomol. […] Each PDE assay was performed in triplicate for each experiment and each experiment was repeated at least three times. As described ([…]. et al., (2009). […] IBMX-sensitive PDE5 and PDE6 and IBMX-insensitive PDE9 activities are absent from these groups because cGMP is the specific substrate and then are not detected in the cAMP-PDE assay. […] J Dairy Sci 92, 3757-3765; […]., et al. (2007). Endocrinology 148, 1858-1867; Siuciak, J. A. et al., (2006). Neuropharmacology 51, 386-396)."}, "[2]": {"test_system": "3′-5′ cAMP-PDE activity in bovine testis, caput, cauda and seminal vesicles homogenates", "assay": "3′-5′ cAMP-PDE assay in bovine testis, caput, cauda and seminal vesicles homogenates", "conditions": "Rol 10 μM, Papa 400 nM (FIG. 3)", "experimental": "After thoroughly vortex-agitating for about one minute, samples were centrifuged at 10 000×g for 4 minutes at room temperature. Supernatant fluid was collected and diluted in different volumes of hypotonic buffer depending on the tissue. Testis, caput and cauda homogenates were diluted in 1 mL of hypotonic buffer while seminal vesicle homogenates were diluted in 2 mL of hypotonic buffer. Homogenates were kept on ice until subjected to PDE assay. The cAMP enzymatic assay (PDE assay) was conducted as previously described ([…]. et al., (2006). BMC developmental biology 6, 47). […] J. et al., (1979). Adv Cyclic Nucleotide Res 10, 69-92) with minor modifications. […] Measurements were also performed in the presence of PDE inhibitors: […] Cilostamide and Rolipram were purchased from Biomol. […] Each PDE assay was performed in triplicate for each experiment and each experiment was repeated at least three times. As described ([…]. et al., (2009). […] IBMX-sensitive PDE5 and PDE6 and IBMX-insensitive PDE9 activities are absent from these groups because cGMP is the specific substrate and then are not detected in the cAMP-PDE assay. […] J Dairy Sci 92, 3757-3765; […]., et al. (2007). Endocrinology 148, 1858-1867; Siuciak, J. A. et al., (2006). Neuropharmacology 51, 386-396)."}, "[3]": {"test_system": "3′-5′ cAMP-PDE activity in bovine cauda epididymal plasma", "assay": "3′-5′ cAMP-PDE assay in bovine cauda epididymal plasma", "conditions": "thawed epididymal plasma 0.5 μL; Papaverine (400 μM) as printed (FIG. 5)", "experimental": "Epididymis from sexually mature bulls was obtained from a local slaughterhouse. Immediately after slaughtering, testicles were kept on ice and brought to the laboratory within 3 hours. Epididymis was dissected and cleared from connective tissues. As already described (Frenette, G. et al., (2002). Biol Reprod 67, 308-313), fluid from the cauda epididymis was collected by retrograde flushing. Epididymal plasma was isolated according to the same centrifugations steps than the seminal plasma as described below.\nThe cAMP enzymatic assay (PDE assay) was conducted as previously described (Sasseville, M. et al., (2006). BMC developmental biology 6, 47). Samples were directly subjected to PDE assay. 3′-5′ cAMP-PDE activity was assessed at 34° C. in 200 μL final volume using 1 μM cAMP as substrate (Thompson, W. J. et al., (1979). Adv Cyclic Nucleotide Res 10, 69-92) with minor modifications. […] Knowing the exact concentrations of spermatozoa in each SP sample, total 3′-5′ cAMP-PDE activity was reported as the quantity of cAMP (fMol) hydrolysed per minute per the number of spermatozoa (fMol/min/10^6 spz). […] To determine which PDE family contributes to total 3′-5′ cAMP-PDE activity, the activity measured in the presence of the respective inhibitors was subtracted from the total. […]"}}}
{"smiles": "COc1ccc(Cc2nccc3cc(OC)c(OC)cc23)cc1OC", "note": "[Papaverine]", "values": [{"measurement": "Percentage of family specific sensitive PDE activity, 3 h Egg yolk", "setting": "[1]; bovine spermatozoa after 3 h in egg yolk based cryoprotectant at 18° C.", "value": 60, "unit": "%"}, {"measurement": "Percentage of family specific sensitive PDE activity, 3 h Liquid semen", "setting": "[1]; bovine spermatozoa after 3 h in liquid semen extender at 18° C.", "value": 56, "unit": "%"}, {"measurement": "Percentage of family specific sensitive PDE activity, 3 h 4° C.", "setting": "[1]; bovine spermatozoa after 3 h in seminal plasma at 4° C.", "value": 60, "unit": "%"}, {"measurement": "Percentage of family specific sensitive PDE activity, 3 h 18° C.", "setting": "[1]; bovine spermatozoa after 3 h in seminal plasma at 18° C.", "value": 59, "unit": "%"}, {"measurement": "Percentage of family specific sensitive PDE activity, Fresh", "setting": "[1]; bovine spermatozoa rapidly after ejaculation (0 h)", "value": 57, "unit": "%"}, {"measurement": "Percentage of total PDE activity sensitive to the inhibitor", "setting": "[1]; bovine spermatozoa, 1 μM cAMP, IBMX 1 mM, cilostamide 10 μM, rolipram 10 μM, papaverine 400 nM (FIG. 12B)", "value": 55, "unit": "%"}, {"measurement": "Percentage of sensitive PDE activity, Cryo (B)", "setting": "[1]; IBMX 1 mM", "value": 50, "unit": "%"}, {"measurement": "Percentage of sensitive PDE activity, Cryo (B)", "setting": "[1]; IBMX 1 mM, listed as papaverine", "value": 49.8, "unit": "%"}, {"measurement": "Share of 3′-5′ cAMP-PDE activity inhibited (papaverine-sensitive)", "setting": "[1]; freshly ejaculated bovine spermatozoa, papaverine 400 nM (FIG. 21)", "value": "more than 50%"}, {"measurement": "Percentage of sensitive PDE activity, Fresh (A)", "setting": "[1]; freshly ejaculated bovine spermatozoa, IBMX 1 mM", "value": 57, "unit": "%"}, {"measurement": "Percentage of sensitive PDE activity, Fresh (A)", "setting": "[1]; freshly ejaculated bovine spermatozoa, IBMX 1 mM, listed as papaverine", "value": 57.1, "unit": "%"}, {"measurement": "Inhibitor-sensitive PDE activity in bovine male reproductive tissues (in words)", "setting": "[2]", "value": "low percentage"}, {"measurement": "Papaverine-sensitive PDE activity in bovine epididymal fluid (in words)", "setting": "[3]", "value": "low"}]}
